Key:
Phakopsora pachyrhizi = assay: Fungicidal activity against Phakopsora pachyrhizi / soybean / leaf disc preventative (Asian soybean rust); assay type: in vivo; conditions: foliar, 200 ppm in the applied formulation, soybean leaf disks, preventative (inoculated one day after application), assessed 12 to 14 days after application, read-out: disease control compared to untreated control leaf disks
How it was run: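 Soybean leaf discs on water agar sprayed with formulated compound diluted in water; spore suspension sprayed on lower leaf surface one day later. Incubated 24-36 h dark at 20° C, 75% rh, then 20° C, 12 h light/day, 75% rh. Percent disease control versus untreated scored 12 to 14 days after application.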

[1] = system: Glomerella laqenarium (Colletotrichum lagenarium); assay: Fungicidal activity against Glomerella lagenarium (Colletotrichum lagenarium) liquid culture / cucumber / preventative (anthracnose); assay type: cell-based; conditions: Colletotrichum orbiculare; 20 ppm in the applied formulation; liquid culture in PDB, 24° C., 3 to 4 days after application; read-out: disease control compared to untreated control (inhibition of growth measured photometrically)
How it was run: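 Cryostored conidia mixed into potato dextrose broth and added to test compound (from DMSO solution) in microtiter plates. Incubated at 24 °C; growth inhibition read photometrically 3 to 4 days after application, as percent activity versus untreated check.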

[2] = system: Puccinia recondita f. sp. tritici; assay: Fungicidal activity against Puccinia recondita f. sp. tritici / wheat / leaf disc curative (brown rust); assay type: in vivo; conditions: foliar, 200 ppm in the applied formulation, wheat leaf segments cv. Kanzler, curative (applied 1 day after inoculation), assessed 6 to 8 days after application, read-out: disease control compared to untreated control leaf disks
How it was run: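 Wheat cv. Kanzler leaf segments on agar, spore-inoculated, held dark at 19° C./75% RH; formulated compound in water sprayed 1 day post-inoculation (curative). Incubated 19° C., 75% RH, 12 h light/12 h dark; percent disease control vs untreated scored 6 to 8 days after application.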

[3] = system: Puccinia recondita f. sp. tritici; assay: Fungicidal activity against Puccinia recondita f. sp. tritici / wheat / leaf disc preventative (brown rust); assay type: in vivo; conditions: foliar, 200 ppm in the applied formulation, wheat leaf segments cv. Kanzler, preventative (inoculated 1 day after application), assessed 7 to 9 days after application, read-out: disease control compared to untreated control leaf disks
How it was run: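 Wheat cv. Kanzler leaf segments on agar sprayed with formulated compound diluted in water, inoculated with P. recondita spores 1 day later. Incubated at 19C, 75% rh, 12 h light/12 h dark; scored 7 to 9 days after application as percent disease control versus untreated segments. Test rate 200 ppm.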

Uromyces viciae-fabae = assay: Fungicidal activity against Uromyces viciae-fabae / field bean / leaf disc preventative (faba-bean rust); assay type: in vivo; conditions: foliar, 288 h, 100 ppm in the applied formulation, field bean leaf discs, preventative (inoculated two hours after application), assessed 12 days after application, read-out: disease control compared to untreated control leaf discs
How it was run: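 Field bean leaf discs on water agar treated with 10 μl compound in acetone plus spreader, then spray-inoculated on the lower surface with Uromyces viciae-fabae spores 2 h later. Incubation at 22 °C, 18 h day, 70% RH; percent disease control versus untreated scored 12 days after application, compounds at 100 ppm.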

Row | Compound | pest or weed control at 200 ppm (Phakopsora pachyrhizi) [%] | inhibition at 20 ppm [1] [%] | pest or weed control at 200 ppm [2] [%] | melting point [°C] | pest or weed control at 200 ppm [3] [%] | pest or weed control at 100 ppm (Uromyces viciae-fabae) [%]
1 | CC1CC(NC(=O)c2ccc(-c3noc(C(F)(F)F)n3)cc2F)=NO1 (stereo not drawn) [Compound 1b.15, 2-fluoro-N-(5-methyl-4,5-dihydroisoxazol-3-yl)-4-[5-(trifluoromethyl)-1,2,4-oxadiazol-3-yl]benzamide] | ≥ 80 | ≥ 80 | ≥ 80 | 152.5 to 155.9 | ≥ 80 | ≥ 80
2 | N#CC(NC(=O)c1ccc(-c2noc(C(F)(F)F)n2)cc1F)c1cccs1 (stereo not drawn) [Compound 5b.20, N-[cyano(2-thienyl)methyl]-2-fluoro-4-[5-(trifluoromethyl)-1,2,4-oxadiazol-3-yl]benzamide] | ≥ 80 | ≥ 80 | ≥ 80 | 138.1 to 139.2 | ≥ 80 | ≥ 80
3 | O=C(NCC1CCCO1)c1ccc(-c2noc(C(F)(F)F)n2)cc1F (stereo not drawn) [Compound 1b.17, 2-fluoro-N-(tetrahydrofuran-2-ylmethyl)-4-[5-(trifluoromethyl)-1,2,4-oxadiazol-3-yl]benzamide] | ≥ 80 | ≥ 80 | ≥ 80 | 95.6 to 96.7 | ≥ 80 | ≥ 80
4 | CCNC(=O)c1ccc(-c2noc(C(F)(F)F)n2)cc1F [Compound 3b.2, N-ethyl-2-fluoro-4-[5-(trifluoromethyl)-1,2,4-oxadiazol-3-yl]benzamide] | ≥ 80 | ≥ 80 | ≥ 80 | 125 to 127 | ≥ 80 | ≥ 80
5 | CC(NC(=O)c1ccc(-c2noc(C(F)(F)F)n2)cc1)c1ccccc1 (stereo not drawn) [Compound 4a.5, N-(1-phenylethyl)-4-[5-(trifluoromethyl)-1,2,4-oxadiazol-3-yl]benzamide] | ≥ 80 | ≥ 80 | ≥ 80 | 144 to 148 | ≥ 80 | ≥ 80
6 | C=CCNC(=O)c1ccc(-c2noc(C(F)(F)F)n2)cc1F [Compound 3b.3, N-allyl-2-fluoro-4-[5-(trifluoromethyl)-1,2,4-oxadiazol-3-yl]benzamide] | ≥ 80 | ≥ 80 | ≥ 80 | 108 to 109.3 | ≥ 80 | ≥ 80
7 | O=C(NCc1cnc(Cl)s1)c1ccc(-c2noc(C(F)(F)F)n2)cc1F [Compound 5b.14, N-[(2-chlorothiazol-5-yl)methyl]-2-fluoro-4-[5-(trifluoromethyl)-1,2,4-oxadiazol-3-yl]benzamide] | ≥ 80 | ≥ 80 | ≥ 80 | 127.8 to 130.8 | ≥ 80 | ≥ 80
8 | C#CCNC(=O)c1ccc(-c2noc(C(F)(F)F)n2)cc1F [Compound 3b.4, 2-fluoro-N-prop-2-ynyl-4-[5-(trifluoromethyl)-1,2,4-oxadiazol-3-yl]benzamide] | ≥ 80 | ≥ 80 | ≥ 80 | 128.2 to 129.4 | ≥ 80 | ≥ 80
9 | CCCNC(=O)c1ccc(-c2noc(C(F)(F)F)n2)cc1F [Compound 3b.1, 2-fluoro-N-propyl-4-[5-(trifluoromethyl)-1,2,4-oxadiazol-3-yl]benzamide] | ≥ 80 | ≥ 80 | ≥ 80 | 118.5 to 119.9 | ≥ 80 | ≥ 80
10 | O=C(NCC1CCOC1)c1ccc(-c2noc(C(F)(F)F)n2)cc1F (stereo not drawn) [Compound 1b.16, 2-fluoro-N-(tetrahydrofuran-3-ylmethyl)4[5(trifluoromethyl)-1,2,4-oxadiazol-3-yl]benzamide] | ≥ 80 | ≥ 80 | ≥ 80 | 124.2 to 126.2 | ≥ 80 | ≥ 80
11 | O=C(NCC1CC1)c1ccc(-c2noc(C(F)(F)F)n2)cc1F [Compound 2b.1, N-(cyclopropylmethyl)-2-fluoro-4-[5-(trifluoromethyl)-1,2,4-oxadiazol-3-yl]benzamide] | ≥ 80 | ≥ 80 | ≥ 80 | 113.5 to 114.7 | ≥ 80 | ≥ 80

Reference: patent US10959432B2, “Microbiocidal oxadiazole derivatives” (Syngenta Participations AG, priority 2016, dated 2021)
